US11673866B2, “Estrogen receptor beta ligands for the prevention and treatment of multiple sclerosis (MS) and other demyelinating, inflammatory and neurodegenerative diseases” (The Board of Trustees of the University of Illinois, priority 2018, dated 2023)
“Also recorded” adds a separate entry of the source.

Key:
Assay type in all cases: in vivo, mouse
EAE mice = test: EAE clinical disease score; set-up: key to Disability: Disease score: ‘+’ indicate marker was significantly (p ≤ 0.05) increased in treatment group relative to vehicle; ‘−’ indicates marker was significantly (p ≤ 0.05) decreased in treatment group relative to vehicle; ○: ‘o’ indicate marker did not change relative to vehicle; settings: for Disability: Disease score / EAE clinical scores / disease progression: vs vehicle; for EAE clinical symptoms during peak disease: therapeutic 5 mg/kg/d from day 8 (postEAE); for EAE clinical scores / disease progression: therapeutic s.c. from day 8 (postEAE)
[1] = system: corpus callosum mature OLs (CC1) and MBP; test: CC1 mature OLs and MBP immunoreactivity in callosal white matter tracts of EAE mice; set-up: key to Myelination: OLs / Myelination: MBP: ‘+’ indicate marker was significantly (p ≤ 0.05) increased in treatment group relative to vehicle; ‘−’ indicates marker was significantly (p ≤ 0.05) decreased in treatment group relative to vehicle; ○: ‘o’ indicate marker did not change relative to vehicle; settings: vs vehicle; for CC1+ mature OL numbers, corpus callosum / MBP+ staining, corpus callosum: therapeutic treatment (postEAE)
Text: Immunohistochemistry: Before histological staining, 40-μm free floating sections were thoroughly washed with PBS to remove residual sodium azide (Crawford et al., 2010). Sections were permeabilized with 0.3% Triton X-100 in ix PBS and 15% normal goat serum (NGS). Myelination, gliosis and immune markers were visualized by the following primary antibodies at a concentration of 1:500 unless otherwise noted: chicken anti-myelin basic protein (MBP; polyclonal, EMD Millipore, Darmstadt, Germany), chicken anti-glial fibrillary acidic protein (GFAP; EMD Millipore, Darmstadt), rat anti-cluster of differentiation 45 (CD45; clone 30-F11, BD Biosciences, San Diego, Calif.), mouse anti-ionized calcium-binding adapter molecule 1/allograft inflammatory factor-1 (Iba1/AIF1; clone 20A12.1, EMD Millipore, Darmstadt, Germany), goat anti-CXCL1 (R&D systems; Minneapolis, Minn.) at 1:250 and mouse anti-adenomatous polyposis coli (CC-1; clone CC-1, Genetex, Irvine, Calif.). Secondary staining was performed using polyclonal fluorophore-conjugated antibodies from ThermoFisher Scientific at a concentration of 1:500 unless otherwise specified: goat anti-chicken Alexa Fluor® 555 (AF555), goat anti-rabbit Alexa Fluor® 647 (AF647), donkey anti-chicken IgY Cy3 (EMD Millipore), goat anti-rat IgG AF647, goat anti-rabbit IgG Cy3 (EMD Millipore), goat anti-mouse IgG2b AF647 and rabbit anti-goat AF647. Nuclei were counter stained with 4′,6-Diamidino-2-phenylindole (DAPI, 2 ng/ml; Molecular Probes) for 10 minutes after incubation with secondary antibodies, and sections were mounted on glass slides, allowed to dry, and coverslipped with Fluoromount G mounting medium (Thermo Fisher Scientific) for imaging.
Confocal Microscopy: Thoracic spinal cord dorsal and ventral column sections, as well as CC were imaged using an Olympus BX61 confocal microscope (Olympus America Inc., Center Valley, Pa.) using a 10× and 40× objective. Z-stack projections were compiled using SlideBook 6 software (Intelligent Imaging Innovations, Inc., Denver, Colo.). Immunostaining was quantified using unbiased stereology (Crawford et al., 2010). All images (RGB) were Confocal converted to grayscale, split, and separated by color channel using imageJ version 2.2.0-rc-46/1.50 g (NIH). To avoid experimenter bias, auto-adjustment of brightness and contrast, as well as threshold of staining signal, was carried out by ImageJ. MBP^+, GFAP^+, CD45^+, Iba1^+, CC1^+, and CXCL1^+, staining intensity was measured as percent area of positive immunoreactivity within the region of interest and intensity of signal determined by ImageJ.
To test whether IndCl analogues promote similar gains in mature OL numbers and myelination, callosal white matter tracts were assessed for adenomatous polyposis coli (CC1) and MBP immunoreactivity, respectively. Additionally, ultrastructural analysis of the CC was performed by EM imaging to confirm the integrity of axon myelination.

callosal axons = test: Callosal compound action potential (CAP) recordings in brain slices of EAE mice; settings: vs vehicle; for N1 CAP amplitude / N2 CAP amplitude: therapeutic treatment (postEAE)
Experimental: Electrophysiology: To assess functional conductivity across the CC, electrophysiological recordings of compound action potentials (CAPs) were measured as previously described (Crawford et al., 2009; Crawford et al., 2010). Coronal brain slices were prepared from adult (3 to 4 month old) C57BL/6 female mice. Briefly, mice were deeply anesthetized under isoflurane and decapitated. The brain was removed and submerged in partially frozen “slushy” solution of slicing buffer containing (in mM): 87 NaCl, 75 sucrose 2.5 KCl, 0.5 CaCl2), 7 MgCl2, 1.25 NaH2PO4, 25 NaHCO3, 10 glucose, 1.3 ascorbic acid, 0.1 kynurenic acid, 2.0 pyruvate, and 3.5 MOPS, bubbled with 5% CO2+95% O2 (Lauderdale et al., 2015). Coronal slices (350 μm) were prepared using a Leica VT 1000S Vibratome (Bannockburn, Ill.) and subsequently incubated for 45 minutes at 35° C. in slicing buffer. Following incubation, slices were allowed to cool to room temperature for 15 minutes then transferred to ACSF […] containing (in mM): 125 NaCl, 2.5 KCl, 2.5 CaCl2), 1.3 MgCl2, 1.25 NaH2PO4, 26.0 NaHCO3, and 15 glucose, oxygenated with 5% CO2+95% O2. Slices were equilibrated in the standard ACSF for a minimum of 15-20 minutes prior to electrophysiological recordings. During electrophysiological recordings, slices were continuously perfused with oxygenated ACSF maintained at a flow rate of 1 mL/min. For recording CAPs, an Axon Digidata 1550 was used with a Multiclamp 700B Amplifier and PClamp 10.4 Software (Molecular Devices, Sunnyvale, Calif.). Continuous recordings for CC conduction experiments were low-pass filtered at 10 kHz and digitized at 200 kHz. All experiments were conducted at room temperature (24-26° C.). To stimulate the CC fiber tract, a concentric bipolar stimulating electrode (FHC Neural microTargeting Worldwide, Bowdoin, Me., USA) was placed approximately 1 mm away across from a recoding electrode (glass micropipette filled with ACSF) with a resistance of 1-3 MO. To elicit CAPs, an episodic stimulation protocol was created consisting of 8 consecutive sweeps, each 12 ms long, with a 5-sec delay between sweeps and an immediate stimulus (0.01 ms duration) after the start of each sweep (Crawford et al., 2009a). Stimulus intensity was adjusted manually using an ISO-Flex stimulator (A.M.P.I). Standardized input-output plots were generated in current clamp mode for each slice by averaging at least 4 consecutive sweeps together to […] the signal-to-noise ratio. […] Electrophysiology data were analyzed using Clampfit 10.4 software (Molecular Devices, Sunnyvale, Calif.) and OriginPro 2016 64 Bit (OriginLab Corporation)
Large white matter tracts, such as the CC, are especially vulnerable to demyelination and axonal damage in MS and EAE (Ozturk et al., 2010; Mangiardi et al., 2011). Compound action potential (CAP) recordings are a valuable technique for assessing demyelination and damage in these areas through their impact on functional conductivity (Crawford et al., 2009; Crawford et al., 2010; Moore et al., 2013).

[2] = Post (therapeutic, postEAE) treatment of EAE mice
[3] = Pre (prophylactic, preEAE) E2 treatment of EAE mice

SMILES | Disability: Disease score (EAE mice; [2]) | Disability: Disease score (EAE mice; [3]) | Myelination: MBP [1, 2] | Myelination: OLs [1, 2] | Myelination: MBP [1, 3] | Myelination: OLs [1, 3] | Electrophysiology: N1 amplitude (callosal axons; [2]) | N1 CAP amplitude (callosal axons) | EAE clinical symptoms during peak disease (EAE mice) | EAE clinical scores / disease progression (EAE mice) | CC1+ mature OL numbers, corpus callosum [1] | MBP+ staining, corpus callosum [1] | Electrophysiology: N2 amplitude (callosal axons; [2]) | N2 CAP amplitude (callosal axons) | N2 CAP amplitude (callosal axons; listed as Ind-o-Cl)
C[C@]12CC[C@@H]3c4ccc(O)cc4CC[C@H]3[C@@H]1CC[C@@H]2O [E2, 170 estradiol] | ○ | − | ○ | + | + | + |  |  |  |  |  |  |  |  | 
Oc1ccc(-n2nc3ccc(O)cc3c2Cl)cc1 [IndCl, chloroindazole] | ○ |  | + | + |  |  | + | significant improvement; also recorded: improved | did not significantly affect EAE clinical symptoms | reversed disease progression over time | significant increase; also recorded: rescued the loss of CC1+ cells | increased MBP+ staining |  |  | 
Oc1ccc(-n2nc3ccc(O)cc3c2Cl)c(Cl)c1 [IndCl-o-Cl, 3-chloro-2-(2-chloro-4-hydroxyphenyl)-2H-indazol-5-ol] | − |  | + | + |  |  | + | improved | did not significantly affect EAE clinical symptoms | reversed disease progression over time; also recorded: significantly reduced | significant increase | increased MBP+ staining | + | increased | small but significant increase
Cc1cc(O)ccc1-n1nc2ccc(O)cc2c1Cl [IndCl-o-Me, 3-chloro-2-(4-hydroxy-2-methylphenyl)-2H-indazol-5-ol] | − |  | + | + |  |  | + | improved | did not significantly affect EAE clinical symptoms | reversed disease progression over time; also recorded: significantly reduced | significant increase | increased MBP+ staining |  |  | 
